Results: the RepoRT retention time repository (doi:10.1016/j.chroma.2014.05.003)

Assay: RP, Agilent ZORBAX Eclipse Plus C18, 50 × 4.6 mm, 1.8 µm, 0.5 mL/min, estimated dead time 1.1 min; A: water + 0.1% formic acid; B: acetonitrile + 0.1% formic acid; gradient (min/%B) 0/10 3/10 25/100 28/100
Settings: stereoisomer not certain

`O=c1oc2ccccc2c(O)c1C1CC(c2ccc(-c3ccccc3)cc2)Cc2ccccc21` (centres undefined) and `CC(C)(C)C(O)C(Oc1ccc(-c2ccccc2)cc1)n1cncn1` (centres undefined) are within 1.5-fold of each other in LC retention time: 21.7 min for the first, 16.6 min for the second.

`Cc1cc(C2CC2)nc(Nc2ccccc2)n1` and `COC(=O)c1ccccc1S(=O)(=O)NC(=O)Nc1nc(C)cc(C)n1` are within 1.5-fold of each other in LC retention time: 14.3 min for the first, 12.2 min for the second.

`COCC(=O)N(c1c(C)cccc1C)C(C)C(=O)OC` (centres undefined) and `COC(=O)C(C)N(C(=O)Cc1ccccc1)c1c(C)cccc1C` (centres undefined) are within 1.5-fold of each other in LC retention time: 12.9 min for the first, 18.1 min for the second.

`Cc1ccc(NS(=O)(=O)N(C)C)cc1` and `CC(C)c1ccc(NC(=O)N(C)C)cc1` are the same in LC retention time: 12.9 min for the first, 12.9 min for the second.

`CCC1CCCC(OC2CCC(N(C)C)C(C)O2)C(C)C(=O)C2=CC3C(C=C(C)C4CC(OC5OC(C)C(OC)C(OC)C5OC)CC43)C2CC(=O)O1` (centres undefined) and `CCC1CCCC(OC2CCC(N(C)C)C(C)O2)C(C)C(=O)C2=CC3C(C=CC4CC(OC5OC(C)C(OC)C(OC)C5OC)CC43)C2CC(=O)O1` (centres undefined) are within 1.5-fold of each other in LC retention time: 14.2 min for the first, 14.9 min for the second.

First: Nc1ccc(S(N)(=O)=O)cc1
Second: COC(=O)NS(=O)(=O)c1ccc(N)cc1
The LC retention time of the first is 3-fold lower: 1.82 min for the first, 5.43 min for the second.

`CC(C)C1(C)N=C(c2nc3ccccc3cc2C(=O)O)NC1=O` (centres undefined) and `COCc1cnc(C2=NC(C)(C(C)C)C(=O)N2)c(C(=O)O)c1` (centres undefined) are within 1.5-fold of each other in LC retention time: 11 min for the first, 8.04 min for the second.

First: O=C1CCc2cccc3c2N1CC3
Second: CN1C(=O)CCC1c1cccnc1 (centres undefined)
The LC retention time of the first is 7.6-fold higher: 10.2 min for the first, 1.35 min for the second.

Compared with `COCC(=O)N(c1c(C)cccc1C)N1CCOC1=O`, `Cc1cccc(C)c1N` is 1.8-fold lower in LC retention time: 10.9 min for the first, 5.94 min for the second.

Compared with `Nc1nc(N)nc(NC2CC2)n1`, `CSc1nc(NC2CC2)nc(NC(C)(C)C)n1` is 9.3-fold higher in LC retention time: 1.36 min for the first, 12.6 min for the second.

Compared with `CCOc1ccc2c3c1OC1C(O)C=CC4C(C2)N(C)CCC341` (centres undefined), `CC12CCC3c4ccc(O)cc4CCC3C1CC(O)C2O` (centres undefined) is 1.6-fold higher in LC retention time: 5.83 min for the first, 9.36 min for the second.

First: CC(C)NCC(O)COc1cccc2ccccc12 (centres undefined)
Second: CC(C)NCC(O)COc1cccc2[nH]ccc12 (centres undefined)
The LC retention time of the first is 1.7-fold higher: 9.19 min for the first, 5.55 min for the second.

`CC(Cc1ccc(C(C)(C)C)cc1)CN1CC(C)OC(C)C1` (centres undefined) and `CC(Cc1ccc(C(C)(C)C)cc1)CN1CCCCC1` (centres undefined) are within 1.5-fold of each other in LC retention time: 12.4 min for the first, 12.5 min for the second.

Compared with `CCOc1ccc(NC(C)=O)cc1`, `CC(=O)Nc1ccc(O)cc1` is 3.5-fold lower in LC retention time: 9.38 min for the first, 2.66 min for the second.

`C#CC1(O)CCC2C3CCc4cc(O)ccc4C3CCC21C` (centres undefined) and `CC12CCC(=O)C=C1CCC1C2CCC2(C)C(O)CCC12` (centres undefined) are within 1.5-fold of each other in LC retention time: 14.3 min for the first, 13.7 min for the second.

Going from `COC(=O)Nc1nc2ccccc2[nH]1` to `CCCSc1ccc2nc(NC(=O)OC)[nH]c2c1`, the LC retention time rises from 3.27 min to 10.5 min (3.2-fold).

`CCCCCCCCCCCCCCCC[N+](C)(C)Cc1ccccc1` and `CCCCCCCCCCCCCC[N+](C)(C)Cc1ccccc1` are within 1.5-fold of each other in LC retention time: 20.6 min for the first, 18.4 min for the second.

`CN(C)c1ccc(C(c2ccccc2)c2ccc(N(C)C)cc2)cc1` and `CN(C)CCOC(c1ccccc1)c1ccccc1` are within 1.5-fold of each other in LC retention time: 12.6 min for the first, 9.81 min for the second.

`CON(C(=O)c1cc(C)oc1C)C1CCCCC1` and `CCSC(=O)N(CC)C1CCCCC1` are within 1.5-fold of each other in LC retention time: 17.7 min for the first, 19.8 min for the second.

Going from `CN(C)C1C(=O)C(C(N)=O)=C(O)C2(O)C(=O)C3=C(O)c4c(O)cccc4C(C)(O)C3CC12` (centres undefined) to `Cc1cc(C)c(C2=C(OC(=O)CC(C)(C)C)C3(CCCC3)OC2=O)c(C)c1`, the LC retention time rises from 6.62 min to 23.1 min (3.5-fold).

First: Cc1nc(N(C)C)nc(OC(=O)N(C)C)c1C
Second: CCCCc1c(C)nc(NCC)nc1OS(=O)(=O)N(C)C
The LC retention time of the first is 2.1-fold lower: 6.86 min for the first, 14.4 min for the second.

Going from `CCOP(=O)(Sc1ccccc1)Sc1ccccc1` to `CCC(=O)C(CC(C)N(C)C)(c1ccccc1)c1ccccc1` (centres undefined), the LC retention time falls from 17.6 min to 11.4 min (1.5-fold).

Compared with `CCn1cc(C(=O)O)c(=O)c2cc3c(cc21)OCO3`, `CC(N)Cc1ccc2c(c1)OCO2` (centres undefined) is 2-fold lower in LC retention time: 9.71 min for the first, 4.74 min for the second.

`CCC1OC(=O)C(C)C(OC2CC(C)(OC)C(O)C(C)O2)C(C)C(OC2OC(C)CC(N(C)C)C2O)C(C)(O)CC(C)C(=NOCOCCOC)C(C)C(O)C1(C)O` (centres undefined) and `CCC1OC(=O)C(C)C(OC2CC(C)(OC)C(O)C(C)O2)C(C)C(OC2OC(C)CC(N(C)C)C2O)C(C)(OC)CC(C)C(=O)C(C)C(O)C1(C)O` (centres undefined) are within 1.5-fold of each other in LC retention time: 11.3 min for the first, 11.1 min for the second.

Going from `CNC(=O)CSP(=O)(OC)OC` to `CNC(=O)CSP(=S)(OC)OC`, the LC retention time rises from 2.22 min to 9 min (4.1-fold).

`COP(=S)(OC)Oc1ccc([N+](=O)[O-])c(C)c1` and `COP(=S)(OC)Oc1ccc(S(=O)(=O)N(C)C)cc1` are within 1.5-fold of each other in LC retention time: 17.2 min for the first, 15.3 min for the second.

`CCOc1cc(OP(=S)(OC)OC)nc(CC)n1` and `CCOP(=S)(OCC)Oc1cc(C)nc(C(C)C)n1` are the same in LC retention time: 18.8 min for the first, 18.8 min for the second.

Compared with `Nc1ccc(-c2ccc(N)cc2)cc1`, `Nc1ccc(S(=O)(=O)Nc2ccccn2)cc1` is 3.9-fold higher in LC retention time: 1.36 min for the first, 5.27 min for the second.

`Cc1ccnc(NS(=O)(=O)c2ccc(N)cc2)n1` and `Cc1nnc(NS(=O)(=O)c2ccc(N)cc2)s1` are within 1.5-fold of each other in LC retention time: 5.73 min for the first, 7.12 min for the second.

`CC(C(=O)O)c1cccc(C(=O)c2ccccc2)c1` (centres undefined) and `CN(C(=O)COc1nc2ccccc2s1)c1ccccc1` are within 1.5-fold of each other in LC retention time: 13.7 min for the first, 16 min for the second.

Going from `Cc1cc(=O)n(-c2ccccc2)n1C` to `Cc1c(C(C)C)c(=O)n(-c2ccccc2)n1C`, the LC retention time rises from 6.97 min to 11.9 min (1.7-fold).

Compared with `CNC(=O)ON=C(C)SC`, `CNC(=O)ON=CC(C)(C)S(C)=O` (centres undefined) is 2-fold lower in LC retention time: 5.39 min for the first, 2.7 min for the second.

`CCNc1nc(NC(C)C(C)C)nc(SC)n1` (centres undefined) and `CSc1nc(NC(C)C)nc(NC(C)C)n1` are within 1.5-fold of each other in LC retention time: 13.1 min for the first, 12.1 min for the second.

Compared with `CCOC(=O)CC(SP(=O)(OC)OC)C(=O)OCC` (centres undefined), `CNC(=O)C=C(C)OP(=O)(OC)OC` is 2.1-fold lower in LC retention time: 11.8 min for the first, 5.55 min for the second.

Compared with `CNC(=C[N+](=O)[O-])NCCSCc1ccc(CN(C)C)o1`, `CCSCc1ccccc1OC(=O)NC` is 6.5-fold higher in LC retention time: 2.03 min for the first, 13.1 min for the second.

First: CNC(=O)Oc1cccc2c1OC(C)(C)C2
Second: CCOC(=O)CCN(SN(C)C(=O)Oc1cccc2c1OC(C)(C)C2)C(C)C
The LC retention time of the first is 1.7-fold lower: 12.1 min for the first, 20.8 min for the second.

First: Cc1nnc(-c2ccccc2)c(=O)n1N
Second: COP(=S)(OC)SCn1nnc2ccccc2c1=O
The LC retention time of the first is 2-fold lower: 7.57 min for the first, 15.4 min for the second.

Compared with `COc1nn(CSP(=S)(OC)OC)c(=O)s1`, `Cn1cnc2c1c(=O)[nH]c(=O)n2C` is 7.8-fold lower in LC retention time: 15.3 min for the first, 1.96 min for the second.

`CCOP(=S)(Oc1ccc([N+](=O)[O-])cc1)c1ccccc1` (centres undefined) and `CCOP(=S)(OCC)Oc1ccc([N+](=O)[O-])cc1` are within 1.5-fold of each other in LC retention time: 20 min for the first, 18.5 min for the second.

`O=NN1CCOCC1` and `O=NN1CCCC1` are within 1.5-fold of each other in LC retention time: 2.21 min for the first, 2.66 min for the second.

First: COC1C(OC(C)=O)CC(=O)OC(C)CC=CC=CC(O)C(C)CC(CC=O)C1OC1OC(C)C(OC2CC(C)(O)C(OC(=O)CC(C)C)C(C)O2)C(N(C)C)C1O (centres undefined)
Second: COC1C(O)CC(=O)OC(C)CC=CC=CC(OC2CCC(N(C)C)C(C)O2)C(C)CC(CC=O)C1OC1OC(C)C(OC2CC(C)(O)C(O)C(C)O2)C(N(C)C)C1O (centres undefined)
The LC retention time of the first is 1.6-fold higher: 12 min for the first, 7.59 min for the second.

`CCOP(=S)(OCC)OP(=S)(OCC)OCC` and `CCOP(=S)(OCC)Oc1ccc(S(C)=O)cc1` (centres undefined) are within 1.5-fold of each other in LC retention time: 19.3 min for the first, 13.5 min for the second.

`C=C(C)C1CCC(C)=CC1c1c(O)cc(CCCCC)cc1O` (centres undefined) and `CCC(C)C(=O)OC1CCC=C2C=CC(C)C(CCC3CC(O)CC(=O)O3)C21` (centres undefined) are within 1.5-fold of each other in LC retention time: 21.2 min for the first, 15.7 min for the second.

First: CN(C)C(=O)Nc1ccccc1
Second: CNC(C)C(O)c1ccccc1 (centres undefined)
The LC retention time of the first is 2.8-fold higher: 7.72 min for the first, 2.78 min for the second.

`COc1cccc(C(=O)NN(C(=O)c2cc(C)cc(C)c2)C(C)(C)C)c1C` and `CON=C(C(=O)OC)c1ccccc1COc1ccccc1C` are within 1.5-fold of each other in LC retention time: 16.6 min for the first, 18 min for the second.

Compared with `COC(=O)c1ccccc1CS(=O)(=O)NC(=O)Nc1nc(OC)cc(OC)n1`, `COC(=O)C1C(OC(=O)c2ccccc2)CC2CCC1N2C` (centres undefined) is 1.9-fold lower in LC retention time: 14.2 min for the first, 7.3 min for the second.

Going from `CNCC(O)c1cccc(O)c1` (centres undefined) to `CNC(=O)Oc1ccccc1C(C)C`, the LC retention time rises from 1.36 min to 13.6 min (10-fold).

Going from `CNC(=O)ON=CC(C)(C)S(C)(=O)=O` to `CNC(=O)Oc1ccccc1OC(C)C`, the LC retention time rises from 4.81 min to 11.9 min (2.5-fold).

`CC(C)(C)NCC(O)COc1nsnc1N1CCOCC1` (centres undefined) and `CCNc1nc(NC(C)(C)C)nc(OC)n1` are within 1.5-fold of each other in LC retention time: 6.87 min for the first, 9.32 min for the second.

`CN(C)c1nc(=O)n(C2CCCCC2)c(=O)n1C` and `O=c1[nH]c2c(c(=O)n1C1CCCCC1)CCC2` are within 1.5-fold of each other in LC retention time: 10.1 min for the first, 11.3 min for the second.

First: CCCOC(=O)NCCCN(C)C
Second: CCOc1ccc(NC(=O)OC(C)C)cc1OCC
The LC retention time of the first is 6.7-fold lower: 2.3 min for the first, 15.3 min for the second.

`Cc1cc(NS(=O)(=O)c2ccc(N)cc2)no1` and `CS(=O)(=O)Nc1nc2cc(-c3ccc([N+](=O)[O-])cc3)c([N+](=O)[O-])cc2[nH]c1=O` are within 1.5-fold of each other in LC retention time: 9.06 min for the first, 11.5 min for the second.

`CC(C)(c1ccc(O)cc1)c1ccc(O)cc1` and `O=C(NN=Cc1ccc([N+](=O)[O-])o1)c1ccc(O)cc1` are within 1.5-fold of each other in LC retention time: 13.1 min for the first, 9.51 min for the second.

`COC(=O)NN=Cc1c[n+]([O-])c2ccccc2[n+]1[O-]` and `CN1C2CCC1CC(OC(=O)C(CO)c1ccccc1)C2` (centres undefined) are within 1.5-fold of each other in LC retention time: 6.32 min for the first, 6.29 min for the second.

Compared with `CCC1OC(=O)CC(O)C(C)C(OC2OC(C)C(OC3CC(C)(O)C(O)C(C)O3)C(N(C)C)C2O)C(CC=O)CC(C)C(=O)C=CC(C)=CC1COC1OC(C)C(O)C(OC)C1OC` (centres undefined), `COP(=S)(OC)Oc1ccc(Sc2ccc(OP(=S)(OC)OC)cc2)cc1` is 2.1-fold higher in LC retention time: 10.1 min for the first, 21.2 min for the second.

Going from `CSC(C)=NOC(=O)N(C)SN(C)C(=O)ON=C(C)SC` to `NC(N)=Nc1nc(CSCCC(N)=NS(N)(=O)=O)cs1`, the LC retention time falls from 11.8 min to 1.81 min (6.5-fold).

Compared with `Cn1c(=O)[nH]c(=O)c2[nH]cnc21`, `CCOP(=O)(SC(C)CC)N1CCSC1=O` (centres undefined) is 8.6-fold higher in LC retention time: 1.47 min for the first, 12.7 min for the second.
